In patent publication US20230066008A1, “ANTIPARASITIC COMPOSITION” (DERMALIQ THERAPEUTICS, INC., priority 2020, published 2023):
Where two headings read alike, the source gives them in different places.

Conditions: for Solubility (%w/v): crotamiton tests
Description: 500 mg crotamiton (SynTech, Ph.Eur. grade) is weighed in a 5-ml volumetric flask; the flask is then filled to 5 ml with F6H8 (Novaliq, purity >99%), closed and shaken for 5 min at 280 rpm, RT.

CC=CC(=O)N(CC)c1ccccc1C [Crotamiton, crotamiton]
Appearance of resulting solution (100 mg/ml (10% w/v) in F6H8, shaken 5 min at 280 rpm, RT): clear | Solubility (%w/v) (solvent F4H5): >12%w/v | Solubility (%w/v) (solvent F6H2): ^~6%w/v | Solubility (%w/v) (solvent F6H8): >12%w/v
